ChEMBL document CHEMBL5500360, “Discovery of N-(4-((6-(3,5- Dimethoxyphenyl)-9H-purine derivatives as irreversible covalent FGFR inhibitors” (Eur J Med Chem, 2024)
The source made the active and inactive calls. The rule behind the calls is not given here.

Key:
MDA-MB-231 [1] = assay: Induction of apoptosis in human MDA-MB-231 cells assessed as early apoptotic cells at 2.5 uM incubated for 24 hrs by Annexin V-FITC/PI staining based flow cytometric analysis (reference value: 0.131 %); format: functional
[2] = Metabolic stability in rat liver microsomes assessed as half-life at 1 uM incubated for 45 mins by LC-MS/MS analysis; format: ADME, Microsome
MDA-MB-231 [3] = assay: Induction of apoptosis in human MDA-MB-231 cells assessed as necrotic cells at 2.5 uM incubated for 24 hrs by Annexin V-FITC/PI staining based flow cytometric analysis (reference value: 0.063 %); format: functional
MDA-MB-231 [4] = assay: Antitumor activity against human MDA-MB-231 cells xenografted in female BALB/c athymic nude mouse assessed as tumor growth inhibition at 20 mg/kg, po administered once a day via gavage for 21 days relative to control; format: functional; settings: MDA-MB-231, 504 h, time 21 day, read-out: TGI
[5] = Metabolic stability in mouse liver microsomes assessed as parent compound remaining at 1 uM measured after 5 mins by LC-MS/MS analysis; format: ADME, Microsome; settings: read-out: Stability
MDA-MB-231 [6] = assay: Effect on PLCgamma protein expression in human MDA-MB-231 cells at 5 to 10 uM incubated for 24 hrs by Western blot analysis; format: functional, cell-based; settings: dose 5-10 µM
MDA-MB-231 [7] = assay: Cell cycle arrest in human MDA-MB-231 cells assessed as accumulation of G0-G1 phase cells at 5 uM incubated for 24 hrs by […]PI staining based flow cytometric analysis (reference value: 41.83%); format: functional
[8] = Metabolic stability in rat liver microsomes assessed as parent compound remaining at 1 uM measured after 5 mins by LC-MS/MS analysis; format: ADME, Microsome; settings: read-out: Stability
MDA-MB-231 [9] = assay: Induction of apoptosis in human MDA-MB-231 cells assessed as inhibition of total PARP protein expression incubated for 24 hrs by Western blot analysis; format: functional, cell-based; settings: dose 2.5-10 µM
MDA-MB-231 [10] = assay: Induction of apoptosis in human MDA-MB-231 cells assessed as apoptotic cells at 10 uM incubated for 24 hrs by Annexin V-FITC/PI staining based flow cytometric analysis relative to control; format: functional
MDA-MB-231 [11] = assay: Induction of apoptosis in human MDA-MB-231 cells assessed as viable cells at 5 uM incubated for 24 hrs by Annexin V-FITC/PI staining based flow cytometric analysis (reference value: 99.645%); format: functional; settings: read-out: Activity
MDA-MB-231 [12] = assay: Antitumor activity against human MDA-MB-231 cells xenografted in female BALB/c athymic nude mouse assessed as tumor growth inhibition at 10 mg/kg, po administered once a day via gavage for 21 days relative to control; format: functional; settings: MDA-MB-231, 504 h, time 21 day, read-out: TGI
MDA-MB-231 [13] = assay: Cell cycle arrest in human MDA-MB-231 cells assessed as accumulation of G2-M phase cells at 10 uM incubated for 24 hrs by […]PI staining based flow cytometric analysis (reference value: 16.88%); format: functional
MDA-MB-231 [14] = assay: Induction of apoptosis in human MDA-MB-231 cells assessed as necrotic cells at 5 uM incubated for 24 hrs by Annexin V-FITC/PI staining based flow cytometric analysis (reference value: 0.063 %); format: functional
[15] = Metabolic stability in human liver microsomes assessed as parent compound remaining at 1 uM measured after 45 mins by LC-MS/MS analysis; format: ADME, Microsome; settings: read-out: Stability
MDA-MB-231 [16] = assay: Cell cycle arrest in human MDA-MB-231 cells assessed as accumulation of S phase cells at 2.5 uM incubated for 24 hrs by […]PI staining based flow cytometric analysis (reference value: 41.29%); format: functional
[17] = Toxicity in BALB/c athymic nude mouse xenografted with human MDA-MB-231 cells assessed as effect on lung at 10 to 30 mg/kg, po administered once a day via gavage for 21 days by H and E staining based analysis; format: organism-based; settings: in vivo, 504 h, dose 10-30 mg/kg, time 21 day
MDA-MB-231 [18] = assay: Inhibition of cell migration in human MDA-MB-231 cells at 5 uM incubated for 12 hrs by cell scratch assay relative to control; format: functional
[19] = biological target: Fibroblast growth factor receptor 3 (Homo sapiens, UniProt P22607); assay: Inhibition of FGFR3 (unknown origin) by ELISA
[20] = Metabolic stability in mouse liver microsomes assessed as parent compound remaining at 1 uM measured after 15 mins by LC-MS/MS analysis; format: ADME, Microsome; settings: read-out: Stability
[21] = Toxicity in BALB/c athymic nude mouse xenografted with human MDA-MB-231 cells assessed as effect on kidney at 10 to 30 mg/kg, po administered once a day via gavage for 21 days by H and E staining based analysis; format: organism-based; settings: in vivo, 504 h, dose 10-30 mg/kg, time 21 day
KYSE-150 cell line = assay: cells; settings: Homo sapiens, KYSE-150, 72 h
Description: Antiproliferative activity against human KYSE-150 cells assessed as inhibition of cell growth incubated for 72 hrs by MTT assay

MDA-MB-231 [22] = assay: cells; settings: Homo sapiens, MDA-MB-231, 72 h
[23] = Toxicity in BALB/c athymic nude mouse xenografted with human MDA-MB-231 cells assessed as effect on liver at 10 to 30 mg/kg, po administered once a day via gavage for 21 days by H and E staining based analysis; format: organism-based; settings: in vivo, 504 h, dose 10-30 mg/kg, time 21 day
in vitro = settings: human, HUVEC cells
Description: Cytotoxicity against HUVEC cells assessed as inhibition of cell growth incubated for 72 hrs by MTT assay

[24] = Metabolic stability in mouse liver microsomes assessed as intrinsic clearance at 1 uM incubated for 45 mins by LC-MS/MS analysis; format: ADME, Microsome; settings: read-out: CLH
MDA-MB-231 [25] = assay: Induction of apoptosis in human MDA-MB-231 cells assessed as increase in Bax protein expression incubated for 24 hrs by Western blot analysis; format: functional, cell-based; settings: dose 2.5-10 µM
[26] = Metabolic stability in human liver microsomes assessed as intrinsic clearance at 1 uM incubated for 45 mins by LC-MS/MS analysis; format: ADME, Microsome; settings: read-out: CLH
MDA-MB-231 [27] = assay: Induction of apoptosis in human MDA-MB-231 cells assessed as late apoptotic cells at 10 uM incubated for 24 hrs by Annexin V-FITC/PI staining based flow cytometric analysis (reference value: 0.161 %); format: functional
MDA-MB-231 [28] = assay: Induction of apoptosis in human MDA-MB-231 cells assessed as apoptotic cells at 5 uM incubated for 24 hrs by Annexin V-FITC/PI staining based flow cytometric analysis relative to control; format: functional

Chain of Fibroblast growth factor receptor 3 (P22607 whole entry): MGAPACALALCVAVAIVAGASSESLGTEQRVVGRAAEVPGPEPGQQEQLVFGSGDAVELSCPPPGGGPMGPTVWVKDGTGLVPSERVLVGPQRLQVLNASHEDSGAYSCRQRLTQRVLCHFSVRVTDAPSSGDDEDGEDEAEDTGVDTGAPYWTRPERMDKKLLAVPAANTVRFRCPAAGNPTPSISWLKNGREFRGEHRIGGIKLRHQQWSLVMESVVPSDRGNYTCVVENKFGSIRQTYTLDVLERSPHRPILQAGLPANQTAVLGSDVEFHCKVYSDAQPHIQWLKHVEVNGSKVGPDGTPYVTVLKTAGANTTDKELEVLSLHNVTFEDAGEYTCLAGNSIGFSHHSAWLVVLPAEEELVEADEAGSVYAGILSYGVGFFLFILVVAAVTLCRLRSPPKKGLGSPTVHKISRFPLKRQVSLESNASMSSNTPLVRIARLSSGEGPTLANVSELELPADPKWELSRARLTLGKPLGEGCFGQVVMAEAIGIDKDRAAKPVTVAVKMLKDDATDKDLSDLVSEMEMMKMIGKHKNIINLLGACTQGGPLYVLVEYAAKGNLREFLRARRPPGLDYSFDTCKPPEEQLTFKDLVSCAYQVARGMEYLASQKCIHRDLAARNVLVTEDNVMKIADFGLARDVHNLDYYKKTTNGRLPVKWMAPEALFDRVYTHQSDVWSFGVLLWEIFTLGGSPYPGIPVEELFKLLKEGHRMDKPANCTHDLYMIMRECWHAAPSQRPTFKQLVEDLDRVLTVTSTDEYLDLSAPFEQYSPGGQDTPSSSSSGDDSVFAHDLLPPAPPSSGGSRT

Compound: C=CC(=O)Nc1ccc(Cn2cnc3c(-c4cc(OC)cc(OC)c4)ncnc32)cc1
- Activity (MDA-MB-231 [1]): 26.3%
- half-life at 1 µM [2]: 15.9 min
- Activity (MDA-MB-231 [3]): 2.66%
- inhibition in vivo at 20 mg/kg (MDA-MB-231 [4]): 64.2%
- remaining at 5 min, 1 µM [5]: 61.5%
- Activity (MDA-MB-231 [6]): inactive
- Activity (MDA-MB-231 [7]): 66.5%
- remaining at 5 min, 1 µM [8]: 73.4%
- Activity (MDA-MB-231 [9]): Dose-Dependent Effect
- Activity (MDA-MB-231 [10]): 56.8%
- viability at 5 µM (MDA-MB-231 [11]): 47.8%
- inhibition in vivo at 10 mg/kg (MDA-MB-231 [12]): 40.2%
- Activity (MDA-MB-231 [13]): 15.49%
- Activity (MDA-MB-231 [14]): 3.01%
- remaining at 0.75 h, 1 µM [15]: 33.8%
- Activity (MDA-MB-231 [16]): 34.25%
- Activity [17]: Non-Toxic
- inhibition at 5 µM (MDA-MB-231 [18]): 82%
- IC50 [19]: 0.64 nM
- remaining at 0.25 h, 1 µM [20]: 27.2%
- Activity [21]: Non-Toxic
- IC50 (KYSE-150 cell line): 1930 nM
- IC50 (MDA-MB-231 [22]): 1890 nM
- Activity [23]: Non-Toxic
- IC50 at 72 h (in vitro): 82100 nM
- CLint scaled at 1 µM [24]: 424 mL/min/kg
- Activity (MDA-MB-231 [25]): Dose-Dependent Effect
- CLint scaled at 1 µM [26]: 42 mL/min/kg
- Activity (MDA-MB-231 [27]): 15.73%
- Activity (MDA-MB-231 [28]): 45.4%
